From patent US4952565A (priority 1986, dated 1990)
Read-outs that look alike come from different tables or passages of the source.

Key:
[1] = Dissolution rates, Paddle Method, Apparatus 2 USP XXI, artificial gastric and intestinal juice; format: physicochemical; settings: 37 °C, 100 rpm, equ. 400 mg
Experimental: The dissolution tests were performed in 0.027N HCl and 0.06N HCl (artificial gastric juice) and in artificial intestinal juice, pH 6.0, at the temperature of 37° C. The volume of the artificial biological fluids was 1000 ml. The stirring rate of the paddle mixer was 100 rpm.

[2] = In vitro diffusion/resorption test, Stricker method, Sartorius model; format: in vitro ADME; settings: for Papp: not told, read-out: In vitro diffusion rate constant (kd) (converted)
Experimental: The resorption tests were performed according to the Stricker method on a Sartorius Dissolution Model (Sartorius Dissolution Model, Instruction Manual, Sartorius Membranfilter, Gottingen 1972). The diffusion rates of ibuproxam through artificial lipid membranes at different pH values were determined. On the basis of the found diffusion rate constants (kd) the in vitro resorption rate constants (ka) were calculated.

[3] = Dissolution profiles/rates on Sartorius Dissolution Model SM 16751; format: physicochemical
Experimental: The quantities of the dissolved (MG) and of the resorbed (Mi) active ingredient were determined using a Sartorius Dissolution Model SM 16751 (Sartorius Dissolution Model, Instruction Manual, Sartorius Membranfilter, Gottingen 1972).

[4] = In vitro ibuproxam release from pharmaceutical forms, Paddle Method USP XXI; format: physicochemical; settings: 0.027 HCl, 37 °C, 100 rpm; ibuproxam and Ibudros 400 mg, complex equiv. to 200 mg; mean of 3

SMILES: CC(C)Cc1ccc(C(C)C(=O)NO)cc1 (stereo not shown) [ibuproxam, 2-(4-isobutylphenyl)-propiohydroxamic acid]
- % of dissolved ibuproxam ([1]; 0.027 N HCl pH 1.6, 5 min): 21.4%
- % of dissolved ibuproxam ([1]; 0.027 N HCl pH 1.6, 15 min): 28.1%
- % of dissolved ibuproxam ([1]; 0.027 N HCl pH 1.6, 30 min): 33.3%
- % of dissolved ibuproxam ([1]; 0.027 N HCl pH 1.6, 45 min): 37.4%
- % of dissolved ibuproxam ([1]; 0.027 N HCl pH 1.6, 60 min): 43.1%
- % of dissolved ibuproxam ([1]; 0.06 N HCl pH 1.2, 5 min): 21.8%
- % of dissolved ibuproxam ([1]; 0.06 N HCl pH 1.2, 15 min): 29.8%
- % of dissolved ibuproxam ([1]; 0.06 N HCl pH 1.2, 30 min): 37.4%
- % of dissolved ibuproxam ([1]; 0.06 N HCl pH 1.2, 45 min): 40.4%
- % of dissolved ibuproxam ([1]; 0.06 N HCl pH 1.2, 60 min): 41.7%
- % of dissolved ibuproxam ([1]; artificial intestinal juice pH 6.0, 5 min): 10.2%
- % of dissolved ibuproxam ([1]; artificial intestinal juice pH 6.0, 15 min): 21.2%
- % of dissolved ibuproxam ([1]; artificial intestinal juice pH 6.0, 30 min): 27.7%
- % of dissolved ibuproxam ([1]; artificial intestinal juice pH 6.0, 45 min): 32.7%
- % of dissolved ibuproxam ([1]; artificial intestinal juice pH 6.0, 60 min): 33.3%
- Papp ([2]; pH 1.2, average of 4 tests): 235 ×10⁻⁶ cm/s
- Papp ([2]; pH 3.0, average of 4 tests): 238 ×10⁻⁶ cm/s
- Papp ([2]; pH 6.0, average of 4 tests): 233 ×10⁻⁶ cm/s
- In vitro resorption rate constant (ka) ([2]; pH 1.2, calculated from kd with G = 4.3): 0.060 min⁻¹
- In vitro resorption rate constant (ka) ([2]; pH 6.0, calculated from kd with G = 10.0): 0.138 min⁻¹
- dissolution rate (kdiss) [3]: 0.00017 s⁻¹
- effect of pH of the biological fluids on dissolution rate, in words [3]: does not affect the dissolution rate
- % dissolved within 15 min [4]: 35.8%
- % dissolved within 30 min [4]: 43.4%
- % dissolved within 60 min [4]: 54.5%
